Results as given in ChEMBL document CHEMBL1133052, “Androsterone 3beta-substituted derivatives as inhibitors of type 3 17beta-hydroxysteroid dehydrogenase” (Bioorg Med Chem Lett, 2000).

Key:
Type in all cases: cell-based
[1] = molecular target: T1, 17-beta-hydroxysteroid dehydrogenase type 3 (Homo sapiens, UniProt P37058); assay: Inhibitory concentration against type-3 17-beta-HSD expressed in HEK293 cells
T1 sequence (P37058 whole entry): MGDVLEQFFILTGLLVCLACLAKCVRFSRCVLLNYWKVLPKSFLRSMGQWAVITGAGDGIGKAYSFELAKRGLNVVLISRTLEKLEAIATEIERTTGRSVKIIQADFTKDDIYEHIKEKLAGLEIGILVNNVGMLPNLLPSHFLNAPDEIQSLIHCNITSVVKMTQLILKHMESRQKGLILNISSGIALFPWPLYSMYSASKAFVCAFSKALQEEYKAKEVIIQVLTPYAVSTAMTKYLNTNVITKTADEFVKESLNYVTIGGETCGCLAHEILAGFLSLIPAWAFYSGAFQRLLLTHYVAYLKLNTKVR

[2] = molecular target: T2, 17-beta-hydroxysteroid dehydrogenase type 3 (Homo sapiens) (UniProt P37058); assay: Percent inhibition against type-3 17-beta-HSD expressed in HEK293 cells at 0.3 uM
T2 sequence (whole entry): T1 sequence (P37058 whole entry)

[3] = molecular target: T2, 17-beta-hydroxysteroid dehydrogenase type 3 (Homo sapiens); assay: Percent inhibition against type-3 17-beta-HSD expressed in HEK293 cells at 3 uM

SMILES	IC50 [1] [nM]	inhibition [2] [%]	inhibition [3] [%]
C[C@]12CC[C@](O)(CCc3ccccc3)CC1CC[C@@H]1[C@@H]2CC[C@]2(C)C(=O)CC[C@@H]12 (stereo partly drawn)	99	93	93
C[C@]12CC[C@](O)(Cc3ccccc3)CC1CC[C@@H]1[C@@H]2CC[C@]2(C)C(=O)CC[C@@H]12 (stereo partly drawn)	57	90	94
CCCCCCCC[C@@]1(O)CC[C@@]2(C)C(CC[C@@H]3[C@@H]2CC[C@]2(C)C(=O)CC[C@@H]32)C1 (stereo partly drawn)	147	88	92
C[C@]12CC[C@](O)(CC3CCCCC3)CC1CC[C@@H]1[C@@H]2CC[C@]2(C)C(=O)CC[C@@H]12 (stereo partly drawn)	87	93	95
CCC[C@@]1(O)CC[C@@]2(C)C(CC[C@@H]3[C@@H]2CC[C@]2(C)C(=O)CC[C@@H]32)C1 (stereo partly drawn)	67	89	94
CCC(C)[C@@]1(O)CC[C@@]2(C)C(CC[C@@H]3[C@@H]2CC[C@]2(C)C(=O)CC[C@@H]32)C1 (stereo partly drawn)	73	85	90
C[C@]12CC[C@](O)(C3CCCCC3)CC1CC[C@@H]1[C@@H]2CC[C@]2(C)C(=O)CC[C@@H]12 (stereo partly drawn)	97	88	93
C[C@]12CC[C@](O)(c3ccccc3)CC1CC[C@@H]1[C@@H]2CC[C@]2(C)C(=O)CC[C@@H]12 (stereo partly drawn)	81	88	95
C[C@]12CC[C@@H](O)C[C@H]1CC[C@@H]1[C@@H]2CC[C@]2(C)C(=O)CC[C@@H]12 [ETIOCHOLANOLONE]	330	50	88
C[C@]12CCC(=O)C=C1CC[C@@H]1[C@@H]2CC[C@]2(C)C(=O)CC[C@@H]12 [ANDROSTENEDIONE]	758	24	78
C[C@@]1(O)CC[C@@]2(C)C(CC[C@@H]3[C@@H]2CC[C@]2(C)C(=O)CC[C@@H]32)C1 (stereo partly drawn)	–	72	93
C[C@]12CC[C@](O)(CCC3CCCCC3)CC1CC[C@@H]1[C@@H]2CC[C@]2(C)C(=O)CC[C@@H]12 (stereo partly drawn)	60	92	93
CCCCCC[C@@]1(O)CC[C@@]2(C)C(CC[C@@H]3[C@@H]2CC[C@]2(C)C(=O)CC[C@@H]32)C1 (stereo partly drawn)	100	93	96
